From US12187746B2, “C26-linked rapamycin analogs as mTOR inhibitors” (Revolution Medicines, Inc., priority 2018, dated 2025) come the findings set out here.

Assay [1] concerns P-P70S6K (T389). Description: Cell based AlphaLISA assay, inhibition of P-P70S6K (T389) in MDA-MB-468 cells. The settings on record: Homo sapiens, 4 h, 0.017-1,000 nM, two to four hours at 37° C., AlphaLisa SureFire Ultra, read-out: pIC50 for Inhibition of mTORC1 and mTORC2 Substrate Phosphorylation, p-P70S6K-(T389) (converted). In outline: (§1)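 mTORC1 and mTORC2 activity in cells tracked through AlphaLISA SureFire Ultra detection of the phosphoproteins after incubation and cell lysis; Alpha signal read in duplicate. IC50 from normalized concentration–response regression with control-based normalization.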

In assay [2] the test system is P-4E-BP1 (T37/46). Description: Cell based AlphaLISA assay, inhibition of P-4E-BP1 (T37/46) in MDA-MB-468 cells. The settings on record: Homo sapiens, 4 h, 0.017-1,000 nM, two to four hours at 37° C., AlphaLisa SureFire Ultra, read-out: pIC50 for Inhibition of mTORC1 and mTORC2 Substrate Phosphorylation, p-4E-BP1-(T37/46) (converted). Summed up:
as §1

Assay [3] relates to P-Akt (S473). Description: Cell based AlphaLISA assay, inhibition of P-Akt (S473) in MDA-MB-468 cells. The settings on record: Homo sapiens, 4 h, 0.017-1,000 nM, two to four hours at 37° C., AlphaLisa SureFire Ultra, read-out: pIC50 for Inhibition of mTORC1 and mTORC2 Substrate Phosphorylation, p-AKT1/2/3-(S473) (converted). Summed up: as §1
(Bead proximity is the source of the signal in Alpha formats.)

Regarding `CO[C@H]1C[C@@H]2CC[C@@H](C)[C@@](O)(O2)C(=O)C(=O)N2CCCC[C@H]2C(=O)O[C@H]([C@H](C)C[C@@H]2CC[C@@H](O)[C@H](OC)C2)CC[C@H](C)/C=C(\C)[C@@H](O)[C@@H](OC)C(=NOCC(=O)NCCOCCOCCOCCOCCOCCOCCOCCOCCC(=O)N2CCc3cc(Cn4nc(-c5ccc6oc(N)nc6c5)c5c(N)ncnc54)ccc3C2)[C@H](C)C[C@H](C)/C=C/C=C/C=C/1C` [Example 67], the IC50 is < 0.001 µM in assay [1], < 0.00316 µM in assay [2] and 0.0316 to 1 µM in assay [3].

As for `CO[C@H]1C[C@@H]2CC[C@@H](C)[C@@](O)(O2)C(=O)C(=O)N2CCCC[C@H]2C(=O)O[C@H]([C@H](C)C[C@@H]2CC[C@@H](O)[C@H](OC)C2)C[C@@H](O)[C@H](C)/C=C(\C)[C@@H](O)[C@@H](OC)C(=NOCC(=O)NC2CCN(CC(=O)NCCOCCOCCOCCOCCOCCOCCC(=O)N3CCc4cc(Cn5nc(-c6ccc7oc(N)nc7c6)c6c(N)ncnc65)ccc4C3)CC2)[C@H](C)C[C@H](C)/C=C/C=C/C=C/1C` [Example 68], the results for the IC50 in assay [1], in assay [2] and in assay [3] were 0.001 to 0.01 µM, 0.00316 to 0.0316 µM and 0.0316 to 1 µM, respectively.

For `CO[C@H]1C[C@@H]2CC[C@@H](C)[C@@](O)(O2)C(=O)C(=O)N2CCCC[C@H]2C(=O)O[C@H]([C@H](C)C[C@@H]2CC[C@@H](O)[C@H](OC)C2)C[C@@H](O)[C@H](C)/C=C(\C)[C@@H](O)[C@@H](OC)C(=NOCC(=O)NCCOCCOCCOCCOCCOCCOCCC(=O)NC2CCN(CC(=O)N3CCc4cc(Cn5nc(-c6ccc7oc(N)nc7c6)c6c(N)ncnc65)ccc4C3)CC2)[C@H](C)C[C@H](C)/C=C/C=C/C=C/1C` [Example 69], the values for the IC50 in assay [1], in assay [2] and in assay [3] were 0.001 to 0.01 µM, 0.00316 to 0.0316 µM and > 1 µM, respectively.

For `CC(C)n1nc(-c2ccc3oc(N)nc3c2)c2c(N)ncnc21` [MLN-128, MLN0128, reference compound], the IC50 in assay [1] was 0.001 to 0.01 µM; in assay [2] it was 0.00316 to 0.0316 µM; in assay [3], 0.00316 to 0.0316 µM.

As to `CO[C@H]1C[C@@H]2CC[C@@H](C)[C@@](O)(O2)C(=O)C(=O)N2CCCC[C@H]2C(=O)O[C@H]([C@H](C)C[C@@H]2CC[C@@H](O)[C@H](OC)C2)CC(=O)[C@H](C)/C=C(\C)[C@@H](O)[C@@H](OC)C(=O)[C@H](C)C[C@H](C)/C=C/C=C/C=C/1C` [Rapamycin, (3S,6R,7E,9R, 10R, 12R, 14S, 15E, 17E, 19E,21S,23S,26R,27R,34aS)-9, 10, 12, 13, 14,21,22,23,24,25,26,27,32,33,34,34a-hexadecahydro-9,27-dihydroxy-3-[(1R)-2-[(1 S,3 R,4R)-4-hydroxy-3-methoxycyclohexyl]-1-methylethyl]-10,21-dimethoxy-6,8,12,14,20,26-hexamethyl-23,27-epoxy-3H-pyrido[2,1-c][1,4]-oxaazacyclohentriacontine-1,5,11,28,29(4H,6H,31H)-pentone], the IC50 in assay [1] was < 0.001 µM; in assay [2], > 1 µM; in assay [3] it was > 1 µM.
